{"source": "patent US6809208B2", "about": "“3-Arylbenzofuranones with electron-withdrawing substituents as stabilizers” (Ciba Specialty Chemicals Corporation, priority 2000, dated 2004)", "assay": "Stabilization of polyesters (rancimate, conductivity of separation products)", "conditions": "0.20% stabilizer; 1 hour under pure oxygen at 290° C.; without stabilizer 47", "procedure": "2.5 kg of a polyester which has been dried for 12 hours at 120° C. in a vacuum drying oven (Polyclear® T86, of Hoechst) is charged with the stabilizers listed in Table 23 and is mixed for 2 hours in a Henschel mixer. This mixture is then extruded in a Schwabenthan extruder at a maximum of 275° C. The polymer string is then granulated. The granulate so obtained is dried for another 12 hours in a vacuum drying oven. In a double determination, 500 mg of the granulate is heated over 10 minutes to 290° C. and is stored for 1 hour under pure oxygen in a rancimate at 290° C. The resulting gaseous separation products are continuously led into an aqueous collecting solution and the conductivity (μS) of this solution is continuously measured. Low conductivity values signify that few separation products are formed, high conductivity values signify that very many separation products are formed. […]", "data": [{"smiles": "CC(C)(C)c1cc2c(c(C(C)(C)C)c1)OC(=O)C2c1cccc(C#N)c1", "note": "(stereo not shown) [Compound (107)]", "values": [{"measurement": "Conductivity", "value": 34, "unit": "μS"}]}]}
